ChEMBL document CHEMBL1136380, “Synthesis of beta-lactamase activated nitric oxide donors” (Bioorg Med Chem Lett, 2003)

Key:
[1] = NO releasing ability of the measured through the formation of nitrite (NO2) in solution, following incubation in the absence of beta-lactamase (Compound+penicillinase)
[2] = NO releasing ability of the measured through the formation of nitrite (NO2) in solution, following incubation in the presence of beta-lactamase
[3] = The NO releasing ability measured through the formation of nitrite (NO2) in solution, following incubation of the compound

| SMILES | Concentration [1] [µM] | Concentration [2] [µM] | Concentration [3] [µM] |
| --- | --- | --- | --- |
| O=C(Cc1cccs1)N[C@@H]1C(=O)N2C(C(=O)O)=C(COC(=O)/N=c3/c[n+](N4CCOCC4)[n-]o3)CS[C@H]12 | 10.2 | 2.2 |  |
| [NH-]c1c[n+](N2CCOCC2)no1 |  |  | 15.5 |
